Patent publication EP1710301A1, “L-gulonolactone dehydrogenase of Mycobacterium tuberculosis” (priority 2005, dated 2006)
Read-outs that look alike come from different tables or passages of the source.

Columns and labels:
[1] = target: recombinant GST-tagged L-gulono-1,4-lactone dehydrogenase of Mycobacterium tuberculosis (Mycobacterium tuberculosis, UniProt P9WIT3); conditions: for Enzyme specific activity: substrate 50 mM
[2] = target: plant L-galactono-1,4-lactone dehydrogenase (Brassica oleracea, UniProt O47881); conditions: read-out: Km for the L-galactono-1,4-lactone substrate; value reported by Östergaard et al., 1997; cited from earlier work
Sequence of plant L-galactono-1,4-lactone dehydrogenase (O47881 92-600): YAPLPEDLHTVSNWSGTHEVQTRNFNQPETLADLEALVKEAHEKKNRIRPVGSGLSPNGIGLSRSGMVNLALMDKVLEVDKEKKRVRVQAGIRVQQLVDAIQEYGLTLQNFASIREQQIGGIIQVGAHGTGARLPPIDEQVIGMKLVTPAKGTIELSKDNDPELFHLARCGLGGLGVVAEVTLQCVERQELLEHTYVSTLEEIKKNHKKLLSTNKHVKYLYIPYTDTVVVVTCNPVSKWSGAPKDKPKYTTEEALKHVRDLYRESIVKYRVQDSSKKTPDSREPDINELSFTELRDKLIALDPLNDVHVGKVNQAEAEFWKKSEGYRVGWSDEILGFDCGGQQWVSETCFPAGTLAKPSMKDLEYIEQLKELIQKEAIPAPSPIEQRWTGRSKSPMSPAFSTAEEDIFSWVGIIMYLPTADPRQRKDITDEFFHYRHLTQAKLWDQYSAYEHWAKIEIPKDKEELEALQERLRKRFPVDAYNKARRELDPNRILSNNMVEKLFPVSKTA

[3] = tested on: O=C1O[C@H]([C@@H](O)CO)[C@H](O)[C@@H]1O; assay: purified protein, by the assay type

Sequence of recombinant GST-tagged L-gulono-1,4-lactone dehydrogenase of Mycobacterium tuberculosis (P9WIT3 whole entry): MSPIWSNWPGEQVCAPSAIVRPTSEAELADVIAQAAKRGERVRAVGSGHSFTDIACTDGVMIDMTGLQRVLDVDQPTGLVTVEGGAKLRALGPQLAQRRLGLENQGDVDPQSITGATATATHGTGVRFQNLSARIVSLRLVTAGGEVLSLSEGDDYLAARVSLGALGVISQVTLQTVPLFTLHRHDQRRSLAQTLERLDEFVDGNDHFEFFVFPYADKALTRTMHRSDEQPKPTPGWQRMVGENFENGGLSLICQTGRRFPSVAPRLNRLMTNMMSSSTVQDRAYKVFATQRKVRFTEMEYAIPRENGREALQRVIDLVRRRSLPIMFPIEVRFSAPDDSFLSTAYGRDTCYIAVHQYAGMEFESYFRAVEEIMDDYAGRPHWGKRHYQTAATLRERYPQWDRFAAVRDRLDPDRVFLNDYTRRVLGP

CCN1C(=O)C=CC1=O [N-ethylmaleimide]
Relative activity ([1]; effector 1 mM): 0 % of control
effect on the enzyme activity (in words) ([1]; effectors, EDTA 1 mM): Inhibition

[Cl][Mn][Cl] [MnCl2]
Relative activity ([1]; effector 1 mM): 79 % of control

Cc1cc2nc3c(=O)[nH]c(=O)nc-3n(C[C@H](O)[C@H](O)[C@H](O)COP(=O)(O)OP(=O)(O)OC[C@H]3O[C@@H](n4cnc5c(N)ncnc54)[C@H](O)[C@@H]3O)c2cc1C [FAD]
Relative activity ([1]; effector 100 µM): 94 % of control
effect on the enzyme activity (in words) ([1]; effectors, EDTA 1 mM): not affected

[Cl-].[Cl-].[Zn+2] [ZnCl2]
Relative activity ([1]; effector 1 mM): 0 % of control
effect on the enzyme activity (in words) ([1]; effectors, EDTA 1 mM): Inhibition

[Cl][Cu][Cl] [CuCl2]
Relative activity ([1]; effector 1 mM): 0 % of control
effect on the enzyme activity (in words) ([1]; effectors, EDTA 1 mM): Inhibition

O=C[C@H](O)[C@@H](O)[C@H](O)[C@H](O)C(=O)O [D-glucuronic acid]
Enzyme specific activity [1]: 0 mU/mg ofprotein

O=C[C@H](O)[C@H]1OC(=O)[C@@H](O)[C@H]1O [D-glucurono-3,6-lactone]
Enzyme specific activity [1]: 0 mU/mg ofprotein

O=C1O[C@H]([C@@H](O)CO)[C@@H](O)[C@@H]1O [L-galactono-1,4-lactone]
Enzyme specific activity [1]: 0 mU/mg ofprotein
activity towards substrate (in words) ([1]; substrate specificity): no activity
Km [2]: 3.3 mM

O=C[C@H](O)[C@@H](O)[C@H](O)CO [D-xylose]
Enzyme specific activity [1]: 0 mU/mg ofprotein

[Ca+2].[Cl-].[Cl-] [CaCl2]
Relative activity ([1]; effector 1 mM): 91 % of control

[Cl-].[Cl-].[Mg+2] [MgCl2]
Relative activity ([1]; effector 1 mM): 98 % of control

recombinant GST-tagged L-gulono-1,4-lactone dehydrogenase of Mycobacterium tuberculosis (Mycobacterium tuberculosis H37Rv)
Km [3]: 5 mM mM
Vmax [3]: 2.44µmol·h^-1mg^-1 µmol·h^-1mg^-1
kcat [3]: 0.033 s^-1 s^-1
kcat/Km [3]: 0.0065 s^-1·mM^-1 s^-1·mM^-1

O=C[C@@H](O)[C@H](O)[C@H](O)CO [D-arabinose]
Enzyme specific activity [1]: 0 mU/mg ofprotein

O=C1O[C@H]([C@@H](O)CO)[C@H](O)[C@@H]1O [L-gulono-1,4-lactone]
Enzyme specific activity [1]: 66.7 mU/mg ofprotein

O=C(O)CN(CCN(CC(=O)O)CC(=O)O)CC(=O)O [EDTA]
Relative activity [1]: 0 % of control
effect on the enzyme activity (in words) [1]: complete inhibition
